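Grown in 96-well plates, cells were treated for 48 hours with each compound at five concentrations. Insufficient inhibition: endpoint recorded as highest concentration tested. At the TGI there is no net growth.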
Tests used:
Experiment in all cases: DTP human tumour cell line panel, 48 h
[1] = test system: MCF7 breast
[2] = test system: HT29 colon
[3] = test system: NCI-H460 lung
[4] = test system: U251 CNS
[5] = test system: OVCAR-5 ovarian
[6] = test system: EKVX NSCLC
[7] = test system: SK-MEL-2 melanoma
[8] = test system: SK-OV-3 ovarian
[9] = test system: M14 melanoma
[10] = test system: CAKI-1 renal
[11] = test system: SW-620 colon
[12] = test system: MDA-N
[13] = test system: TK-10 renal
[14] = test system: SK-MEL-5 melanoma
[15] = test system: ACHN renal
[16] = test system: MDA-MB-435
[17] = test system: UACC-62 melanoma
[18] = test system: HCC-2998 colon
[19] = test system: A549 NSCLC
[20] = test system: NCI-H23 lung
[21] = test system: SNB-19 CNS
[22] = test system: HCT-116 colon
[23] = test system: IGROV1 ovarian
[24] = test system: OVCAR-4 ovarian
[25] = test system: NCI-H226 lung
[26] = test system: UACC-257 melanoma
[27] = test system: MALME-3M melanoma
[28] = test system: HS 578T breast
[29] = test system: HOP-92 NSCLC
[30] = test system: NCI/ADR-RES ovarian
[31] = test system: NCI-H522 lung
[32] = test system: A498 renal
[33] = test system: SK-MEL-28 melanoma
[34] = test system: UO-31 renal
[35] = test system: SF-268 CNS
[36] = test system: HOP-62 NSCLC
[37] = test system: MOLT-4 leukemia
[38] = test system: PC-3 prostate
[39] = test system: SNB-75 CNS
[40] = test system: OVCAR-8 ovarian
[41] = test system: COLO 205 colon
[42] = test system: HCT-15 colon
[43] = test system: MDA-MB-231 breast
[44] = test system: SF-539 CNS
[45] = test system: OVCAR-3 ovarian
[46] = test system: T-47D breast
[47] = test system: CCRF-CEM leukemia
[48] = test system: RPMI-8226 leukemia
[49] = test system: SN12C renal
[50] = test system: DU-145 prostate
[51] = test system: BT-549 breast
[52] = test system: KM12 colon
[53] = test system: HL-60(TB) leukemia
[54] = test system: 786-0 renal
[55] = test system: SF-295 CNS
[56] = test system: SR leukemia
[57] = test system: RXF 393 renal
[58] = test system: LOX IMVI melanoma
[59] = test system: K-562 leukemia

Q: With `C=C1N(C)c2ccc(S(=O)(=O)c3ccc4c(c3)C(C)(C)C(=C)N4C)cc2C1(C)C` as the molecule, how does the TGI [1] read?
A: > 100 µM

Q: And the TGI [2]?
A: > 100 µM

Q: What about the TGI [3] of the same molecule?
A: > 100 µM

Q: What about the TGI [4] of the same molecule?
A: > 100 µM

Q: What about the TGI [5] of the same molecule?
A: > 100 µM

Q: What about the TGI [6] of the same molecule?
A: > 100 µM

Q: What about the TGI [7] of the same molecule?
A: > 100 µM

Q: And the TGI [8]?
A: > 100 µM

Q: And the TGI [9]?
A: > 100 µM

Q: And the TGI [10]?
A: > 100 µM

Q: What about the TGI [11] of the same molecule?
A: > 100 µM

Q: And the TGI [12]?
A: > 100 µM

Q: And the TGI [13]?
A: > 100 µM

Q: And the TGI [14]?
A: 43.6 µM

Q: And the TGI [15]?
A: > 100 µM

Q: What about the TGI [16] of the same molecule?
A: > 100 µM

Q: What about the TGI [17] of the same molecule?
A: > 100 µM

Q: And the TGI [18]?
A: > 100 µM

Q: And the TGI [19]?
A: > 100 µM

Q: What about the TGI [20] of the same molecule?
A: > 100 µM

Q: What about the TGI [21] of the same molecule?
A: > 100 µM

Q: What about the TGI [22] of the same molecule?
A: > 100 µM

Q: And the TGI [23]?
A: > 100 µM

Q: And the TGI [24]?
A: > 100 µM

Q: And the TGI [25]?
A: > 100 µM

Q: What about the TGI [26] of the same molecule?
A: > 100 µM

Q: What about the TGI [27] of the same molecule?
A: 79 µM

Q: What about the TGI [28] of the same molecule?
A: 89.2 µM

Q: And the TGI [29]?
A: 41.1 µM

Q: And the TGI [30]?
A: > 100 µM

Q: And the TGI [31]?
A: 58.7 µM

Q: What about the TGI [32] of the same molecule?
A: > 100 µM

Q: And the TGI [33]?
A: > 100 µM

Q: And the TGI [34]?
A: > 100 µM

Q: What about the TGI [35] of the same molecule?
A: > 100 µM

Q: What about the TGI [36] of the same molecule?
A: > 100 µM

Q: And the TGI [37]?
A: 91.7 µM

Q: And the TGI [38]?
A: > 100 µM

Q: What about the TGI [39] of the same molecule?
A: 62.7 µM

Q: And the TGI [40]?
A: > 100 µM

Q: And the TGI [41]?
A: 29.8 µM

Q: What about the TGI [42] of the same molecule?
A: > 100 µM

Q: And the TGI [43]?
A: > 100 µM

Q: What about the TGI [44] of the same molecule?
A: > 100 µM

Q: And the TGI [45]?
A: > 100 µM

Q: What about the TGI [46] of the same molecule?
A: > 100 µM

Q: And the TGI [47]?
A: > 100 µM

Q: And the TGI [48]?
A: 35.5 µM

Q: What about the TGI [49] of the same molecule?
A: > 100 µM

Q: What about the TGI [50] of the same molecule?
A: > 100 µM

Q: What about the TGI [51] of the same molecule?
A: 87.9 µM

Q: What about the TGI [52] of the same molecule?
A: > 100 µM

Q: And the TGI [53]?
A: > 100 µM

Q: What about the TGI [54] of the same molecule?
A: > 100 µM

Q: And the TGI [55]?
A: > 100 µM

Q: With `CC(C)CCNC(=O)c1ccc(CNC(=O)/C=C/c2ccc3ccccc3c2)cc1` as the molecule, how does the TGI [1] read?
A: > 100 µM

Q: What about the TGI [3] of the same molecule?
A: > 100 µM

Q: And the TGI [4]?
A: > 100 µM

Q: What about the TGI [5] of the same molecule?
A: > 100 µM

Q: What about the TGI [6] of the same molecule?
A: > 100 µM

Q: And the TGI [7]?
A: > 100 µM

Q: What about the TGI [8] of the same molecule?
A: > 100 µM

Q: What about the TGI [56] of the same molecule?
A: > 100 µM

Q: What about the TGI [9] of the same molecule?
A: > 100 µM

Q: What about the TGI [10] of the same molecule?
A: > 100 µM

Q: What about the TGI [11] of the same molecule?
A: > 100 µM

Q: And the TGI [12]?
A: > 100 µM

Q: And the TGI [14]?
A: > 100 µM

Q: What about the TGI [15] of the same molecule?
A: > 100 µM

Q: And the TGI [16]?
A: > 100 µM

Q: What about the TGI [17] of the same molecule?
A: > 100 µM

Q: And the TGI [18]?
A: > 100 µM

Q: What about the TGI [19] of the same molecule?
A: > 100 µM

Q: And the TGI [57]?
A: > 100 µM

Q: What about the TGI [20] of the same molecule?
A: > 100 µM

Q: What about the TGI [58] of the same molecule?
A: > 100 µM

Q: And the TGI [21]?
A: > 100 µM

Q: And the TGI [22]?
A: > 100 µM

Q: And the TGI [24]?
A: > 100 µM

Q: What about the TGI [25] of the same molecule?
A: > 100 µM

Q: What about the TGI [26] of the same molecule?
A: > 100 µM

Q: What about the TGI [29] of the same molecule?
A: > 100 µM

Q: And the TGI [30]?
A: > 100 µM

Q: And the TGI [32]?
A: > 100 µM

Q: And the TGI [33]?
A: > 100 µM

Q: What about the TGI [34] of the same molecule?
A: > 100 µM

Q: And the TGI [35]?
A: > 100 µM

Q: What about the TGI [36] of the same molecule?
A: > 100 µM

Q: And the TGI [37]?
A: > 100 µM

Q: What about the TGI [38] of the same molecule?
A: > 100 µM

Q: What about the TGI [39] of the same molecule?
A: > 100 µM

Q: What about the TGI [40] of the same molecule?
A: > 100 µM

Q: What about the TGI [41] of the same molecule?
A: > 100 µM

Q: What about the TGI [42] of the same molecule?
A: > 100 µM

Q: And the TGI [43]?
A: > 100 µM

Q: What about the TGI [45] of the same molecule?
A: > 100 µM

Q: What about the TGI [46] of the same molecule?
A: > 100 µM

Q: And the TGI [48]?
A: > 100 µM

Q: What about the TGI [49] of the same molecule?
A: > 100 µM

Q: What about the TGI [50] of the same molecule?
A: > 100 µM

Q: What about the TGI [59] of the same molecule?
A: > 100 µM

Q: And the TGI [52]?
A: > 100 µM

Q: And the TGI [53]?
A: > 100 µM

Q: What about the TGI [54] of the same molecule?
A: > 100 µM

Q: What about the TGI [55] of the same molecule?
A: > 100 µM

Reference: PubChem BioAssay (NCI)
